Reference: US20160250277A1, “[…] OPIOID RECEPTOR AGONISTS FOR PREVENTING, INHIBITING OR TREATING NAUSEA AND VOMITING” (CARA THERAPEUTICS, INC., priority 2013, published 2016)

Columns and labels:
[1] = tested on: “Chung Model” of neuropathic pain; assay: “Chung Model” of neuropathic pain (paw withdrawal threshold); assay type: in vivo, rats; settings: for blockade of CR845 effect by kappa antagonist into injured paw: intraplantar 0.2 mg, 15 min prior to CR845 1 mg/kg, rats
Method: FIG. 1: Efficacy of CR845 in “Chung Model” of neuropathic pain is blocked with Peripheral (Intrapaw) administration of a kappa antagonist (norBNI) in rats. *** denotes p<0.001 compared to vehicle-treated controls (two-way ANOVA). Vehicle or Nor-BNI was administered intraplantarly (0.2 mg) 15 min prior to CR845. Injection (1 mg/kg). N=6 male rats/group, mean±SEM.
The peripheral mechanism of action of CR845 is supported preclinically by both biochemical in vitro assays and in vivo functional pharmacological studies. […] Moreover, in standard preclinical pain models, such as the “Chung Model” of neuropathic pain, the analgesic action of CR845 was blocked with kappa opioid receptor antagonists administered directly to the local site of injury, indicating a peripheral site of action for CR845 (FIG. 1). In the “Chung Model”, neuropathic pain is induced experimentally by ligating spinal nerves mediating sensation for a hind limb. […] Sets of different thickness filaments are used to test sensitivity, each of which is designed to produce a given force (in grams) upon bending after contact. By testing with these filaments, the minimum force to evoke a withdrawal response defines the paw withdrawal threshold. The nerve injury produces a marked reduction in paw withdrawal thresholds (increased sensitivity to force) in response to probing with the filaments.

[2] = tested on: patients following bunionectomy surgery; settings: human, in vivo
[3] = tested on: patients undergoing laparoscopic hysterectomy; settings: human, in vivo
[4] = tested on: acute and chronic visceral, inflammatory and neuropathic pain; assay: standard preclinical pain models; assay type: in vivo
Method: (§1) The analgesic effect of CR845 was recordable within 15 minutes post-administration and lasted for up to 18 hours following single-dose administration.

[5] = tested on: pro-inflammatory mediators; assay: production and release of pro-inflammatory mediators; settings: preclinical
Method: as §1

[6] = tested on: human subjects; settings: in vivo
[7] = pharmacokinetic studies, drug in extracted brain tissue; assay type: in vivo; settings: animals, analgesic and supra-analgesic doses

## Oc1ccc2c3c1O[C@H]1c4[nH]c5c(c4C[C@@]4(O)[C@@H](C2)N(CC2CC2)CC[C@]314)C[C@@]1(O)[C@H]2Cc3ccc(O)c4c3[C@@]1(CCN2CC1CC1)[C@H]5O4 [nor-BNI, nor-binaltorphamine]
[1]
  blockade of CR845 effect by kappa antagonist into injured paw: significantly reduces the effect of CR845
[1]; listed as norBNI
  blockade of CR845 effect by kappa antagonist into injured paw: blocked

## CC(C)C[C@@H](NC(=O)[C@@H](Cc1ccccc1)NC(=O)[C@H](N)Cc1ccccc1)C(=O)N[C@H](CCCCN)C(=O)N1CCC(N)(C(=O)O)CC1 [CR845, D-Phe-D-Phe-D-Leu-D-Lys-[ω(4-aminopiperidine-4-carboxylic acid)]-OH]
[2]
  SPID0-36 vs placebo: statistically significant
  SPID0-48 vs placebo: statistically significant
  SPID scores 0-24, 0-36, 0-48 vs placebo: Numerical improvements in SPID scores
  acute psychiatric side effects: no evidence of acute psychiatric side effects
  cases of somnolence reported: seven
  mean PID from baseline at each time interval across 48 hours vs placebo: numerically superior
  mean plasma sodium concentration vs normal range: not outside the normal physiological range
  most frequent TEAEs (greater than 10%): transient facial tingling and somnolence
  pain intensity differences 0-12 hour time interval vs placebo: Statistically significant reductions in pain intensity differences
  pain intensity differences 0-36 hour time interval vs placebo: Statistically significant reductions in pain intensity differences
  reduction of incidence of nausea vs placebo: 60%
  reduction of incidence of vomiting vs placebo: 80%
  rise of mean plasma sodium concentration from baseline: approximately 3%
[2]; iv, 0.005 mg/kg
  SPID0-24 vs placebo: statistically significant reduction in pain intensity compared to placebo
[1]; I.V. CR845 1 mg/kg, male rats
  paw withdrawal threshold (neuropathic pain): reduces this neuropathic pain as demonstrated by a subsequent increase in the withdrawal threshold
[3]
  PID for 0-4, 0-8 and 0-16 hour time intervals vs Placebo/Placebo: statistically significant improvements
  Responders in global evaluation of study medication vs placebo: higher percentage of patients
  SPID over 0-8, 0-12 and 0-16 time periods vs Placebo/Placebo: reduced pain intensity compared to the Placebo/Placebo group in a statistically significant manner
  greater reduction in pain intensity at 24 hours vs Placebo/Placebo: approximately 60%
  improvement in mean SPID values 0-4 hour vs Placebo/Placebo: 3.5 fold
  mean TOTPAR0-2 (pain relief within first 2 hours) vs Placebo/Placebo: statistically superior pain relief
  mean TOTPAR 0-12 hour interval vs Placebo/Placebo: reached statistical significance
  mean TOTPAR scores across all intervals vs Placebo/Placebo: numerically superior
  pain intensity for 0-8 and 0-16 hour time intervals vs Placebo/Placebo: statistically significant decreases in pain intensity
  patients who experienced nausea: 26.1%
  patients who experienced vomiting: 1.7%
  pruritus reported vs placebo: less pruritus
  reduction of incidence of nausea vs placebo: approximately 50%
  reduction of incidence of vomiting vs placebo: ~80%
  reported pain relief (TOTPAR) for 0-4, 2-4 and 0-8 hour time periods: statistically significant improvements in reported pain relief
[3]; iv
  mean PID from baseline at each time interval vs Placebo/Placebo: numerically superior
[3]; iv, 0.04 mg/kg
  blood sodium increase (hypernatremia), share of total patients: 14%
[4]; following single-dose administration
  duration of analgesic effect: up to 18 hours
[4]; preclinical pain models
  onset of analgesic effect post-administration: ≤ 15 min
[4]; standard preclinical pain models
  attenuation of pain in preclinical pain models: successfully attenuated acute and chronic visceral, inflammatory and neuropathic pain in a dose-dependent manner
[5]
  production and release of pro-inflammatory mediators: decreased the production and release of pro-inflammatory mediators
[6]
  drug-related respiratory depression: no evidence of drug-related respiratory depression
[7]
  concentration of drug in extracted brain tissue: no measurable concentrations of drug in extracted brain tissue
